Read-outs that look alike come from different tables or passages of the source.
What was measured:
[1] = format: in vivo, human
[2] = co-administered strong CYP3A4 inducer rifampin; cited from earlier work
[3] = cited from earlier work
[4] = NSCLC patients who currently smoke; cited from earlier work
[5] = healthy volunteers, 150 mg dose, cited from earlier work
[6] = system: NSCLC with EGFR activating mutations; conditions: cited from earlier work
CYP3A4 = conditions: in vitro; cited from earlier work
FMO3 = conditions: in vitro; cited from earlier work
[7] = Plasma pharmacokinetics of dovitinib, phase I trial; format: in vivo; conditions: human, oral
[8] = previous studies with dovitinib; cited from earlier work
CYP1A2 = conditions: caffeine as CYP1A2 substrate; cited from earlier work
[9] = cited from earlier work; remark: listed apart in the source
[10] = post-dovitinib relative to pre-dovitinib

Structure (SMILES): C#Cc1cccc(Nc2ncnc3cc(OCCOC)c(OCCO)cc23)c1 [OSI-420]
- AUC0–24h ([1]; Erlotinib alone (E), Day 14 ± 4, normalized to erlotinib 150 mg dose, mean ± SD): 5381 ± 2982 ng·h/mL
- AUC0–24h geometric mean ratio (D + E:E), mean [1, 10]: 0.06
- Cmax geometric mean ratio (D + E:E), mean [1, 10]: 0.17

Structure (SMILES): C#Cc1cccc(Nc2ncnc3cc(OCCOC)c(OCCOC)cc23)c1 [Erlotinib]
- decrease in AUC with rifampin [2]: 66%
- decrease in Cmax with rifampin [2]: 29%
- median half-life [3]: 36.2 h
- steady-state trough concentration, fold lower compared to non-smokers [4]: 2 fold
- AUC(0-t) ([1]; human, plasma, oral, 150 mg): 41000 ng·h/mL
- half-life ([1]; human, plasma, oral, 150 mg): 50 ± 53 h
- decrease in AUC0–24 during dovitinib co-administration ([1]; p < 0.01, six patients): 97%
- decrease in Cmax during dovitinib co-administration ([1]; p = 0.02, six patients): 93%
- AUC0–24h geometric mean ratio (D + E:E), mean [1, 10]: 0.03
- Cmax geometric mean ratio (D + E:E), mean [1, 10]: 0.07
- T1/2, terminal geometric mean ratio (D + E:E), mean [1, 10]: 0.10
- AUC ([5]; non-smokers): 18,726 ng × h/mL
- Cmax ([5]; nonsmokers): 1056 ng/mL
- decrease in AUC in smokers ([5]; smokers vs non-smokers): 64%
- decrease in Cmax in smokers ([5]; smokers vs nonsmokers): 35%
- AUC ([5]; smokers): 6718 ng·h/mL
- Cmax ([5]; smokers): 689 ng/mL
- time to development of resistance in the majority of patients ([6]; NSCLC patients with EGFR activating mutations): less than 1 year
- response rates (RRs) ([6]; NSCLC patients with known EGFR activating mutations): 60–70%

Structure (SMILES): CN1CCN(c2ccc3nc(-c4c(N)c5c(F)cccc5[nH]c4=O)[nH]c3c2)CC1 [Dovitinib]
- share of metabolism by CYP3A4 (CYP3A4): 17–35%
- share of metabolism by FMO3 (FMO3): 65–83%
- Tmax [7]: 6 h
- half-life [7]: 32 ± 19 h
- decreased appetite, regardless of grade [8]: 37.0%
- diarrhea, regardless of grade [8]: 68%
- fatigue, regardless of grade [8]: 40.5%
- nausea, regardless of grade [8]: 66.7%
- vomiting, regardless of grade [8]: 60.6%
- reduction of the AUC of caffeine (CYP1A2): 96%
- effect of food on bioavailability [9]: food does not alter the bioavailability

Source: PMC4613811 (Lung cancer (Amsterdam, Netherlands), 2015)
